Source: patent US4814332A, “Antimicrobial 1,3-disubstituted/imidazolium salts” (Hoffman-La Roche Inc., priority 1986, dated 1989)

Columns and labels:
Litomosoides carinii = assay: filaricidal activity on cotton rats infected with Litomosoides carinii; type: in vivo, Litomosoides carinii (in cotton rats, Sigmodon hispidus); settings: sc, 1008 h, s.c., L. carinii-infected cotton rats, treated 14 weeks after infection, dissected 42 days after treatment, Probit analysis, read-out: ED90 (dosage at which 90% of the worms removed from the pleural cavity are dead)
Experimental: (§1) The filaricidal activity of the compounds of formula I can be determined, for example, on cotton rats (Sigmodon hispidus) which have been infected with Litomosoides carinii. The infection with L. carinii is transmitted by the blood-sucking mite Bdellonyssus bacoti in which the development of the microfilaria in infectious larvae takes place. The cotton rats are infected by exposing them to bites of infected mites. After fourteen (14) weeks, the infected groups of 2-4 animals are treated subcutaneously with the compound to be tested. Forty two (42) days after treatment with the compound to be tested, the experimental animals are dissected, and the adult filaria are removed from the pleural cavity. Living and dead or encapsulated worms are separated from one another and weighed. The filaricidal activity is expressed as the percentage proportion of dead macrofilaria per treatment group. The ED90 is then determined by means of Probit analysis using the values from different dosage groups. The ED90 is that dosage at which 90% of the worms removed from the pleural cavity are dead. In the following Table, the results which were obtained in the previously described test with representative members of the class of compound defined by formula I are compiled. Moreover, the Table contains data concerning the acute toxicity of some of the compounds of formula I in mg per kg obtained after single oral administration to mice.

[1] = acute toxicity after single oral administration to mice; settings: mouse, in vivo, p.o.
Experimental: as §1, with “Moreover, the Table contains data concerning the acute toxicity of some of the compounds of formula I in mg per kg obtained after single oral administration to mice.” left out

SMILES	ED90 (Litomosoides carinii) [mg/kg]	LD50 [1] [mg/kg]
CN(C)c1ccc(C=Nn2cc[n+](N=Cc3ccc(N(C)C)cc3)c2C=CN2CCCCC2)cc1.[Cl-] [Compound B, 1,3-bis[[p-(dimethylamino)benzylidene]amino]-2-(2-piperidinovinyl)imidazolium chloride]	2	–
CN(C)C=Cc1n(N=Cc2ccc(N(C)C)cc2)cc[n+]1N=Cc1ccc(N(C)C)cc1.[Cl-] [Compound A, 1,3-bis[[p-(dimethylamino)benzylidene]amino]-2-[2-(dimethylamino)vinyl]imidazolium chloride]	1	312 to 625
CN(C)c1ccc(C=Nn2cc[n+](N=Cc3ccc(N(C)C)cc3)c2-c2ccccc2)cc1.[Cl-] [Compound D, 1,3-bis[[p-(dimethylamino)benzylidene]amino]-2-phenylimidazolium chloride]	< 1	1250 to 2500
CN(C)c1ccc(C=Nn2cc[n+](N=Cc3ccc(N(C)C)cc3)c2C=CN2CCOCC2)cc1.[Cl-] [Compound C, 1,3-bis[[p-(dimethylamino)benzylidene]amino]-2-(2-morpholinovinyl)imidazolium chloride]	0.55	–
